Earlier results on two compounds are cited in US6506736B1, “Method for obtaining and using a combination of a purine nucleotide and nitrogen monoxide donor for treating sexual dysfunction” (priority 1998, dated 2003).

Each structure is given as a SMILES string.

For one data set, the system named is erection. The note with it: dogs; intravenous injection.
A further data set relates to erectile dysfunction. The note with it: 2800 mg L-arginine per day.

For the compound `Nc1ncnc2c1ncn2[C@@H]1O[C@H](COP(=O)(O)OP(=O)(O)OP(=O)(O)O)[C@@H](O)[C@H]1O` [adenosine triphosphate], the induction of erection entry in the data set with erection is on record as “induces erection”. With `N=C(N)NCCC[C@H](N)C(=O)O` [L-arginine], in the data set with erectile dysfunction, the “cases with favorable effect on erectile dysfunction” value was “approximately 40%”.
